How the values were obtained:
[1] = tested on: JURKAT cells; assay: Inhibition of cell proliferation (Vi-cell counting); assay type: cell-based, human
Description: The rate of inhibition of cell proliferation is determined by dividing the difference between the proliferation rate of the unirradiated control cells and the proliferation rate of the irradiated cells by the proliferation rate of the unirradiated control cells, the rate of cell proliferation being determined by dividing the total number of final cells by the total number of starting cells. The rate of inhibition of proliferation was determined 3 days after irradiation and after the cells had been cultured.
(§1) To monitor the parameters of interest (apoptosis and inhibition of JURKAT proliferation), the cells were cultured using cell counting. To do this, 5.10^6 treated cells and 5.10^6 untreated cells were seeded in 10 ml of culture medium.
The initial JURKAT population was 5.10^6 cells per culture flask. The number of cells per culture flask was then counted by Vi-cell.
To do this, the culture medium with the cells was centrifuged at 1500 rpm for 5 minutes and the pellet was resuspended in supplemented RPMI culture medium. Depending on the cell density, a 1/10 dilution in PBS could be performed.
The percentage inhibition of cell proliferation on day n (Dn) was determined by the following formula:
% PI(Dn)=100−% P(Dn) [Math. 2]
in which % P(Dn) is the cell proliferation rate at n days, determined by the following formula: […]

[2] = tested on: JURKAT cells; assay: Apoptosis test (annexin-V FITC / propidium iodide flow cytometry), delta-apoptosis; assay type: cell-based, human
Description: To obtain the desired quantity of JURKAT cells, they were cultured in an RPMI 1640 medium supplemented with foetal calf serum (10% v/v), 1% L-glutamine (Lonza) and 1% penicillin-streptomycin (Lonza). Cells were grown in culture flasks placed in an incubator at 37° C. and 5% CO2. The JURKAT doubling time was approximately 27 hours.
The cells were suspended in a solution of PBS (phosphate buffer saline) or in a 2% haematocrit solution comprising 1/14 of the anticoagulant ACD-A, a 50/50 v/v mixture of NaCl and plasma. The final volume was such that the thickness of the cell suspension in the container was around 3 mm.
In the case of UVA irradiation, the cell solution also contained 200 ng/ ml or 333° ng/ml of 8-MOP.
At the end of the irradiation step, the cell solutions with a haematocrit level of 2% are washed in order to recover as many JURKAT cells as possible for culture with low contamination by red blood cells. To do this, the components were separated by density gradient using a Ficoll solution (GE Healthcare).
After JURKAT isolation, the cells were washed three times to remove the Ficoll solution. The first two washes were performed in a PBS solution with 2 mM EDTA (Thermo Fisher), and the third was performed in a PBS solution. The cells were then re-suspended in supplemented RPMI medium and counted using Vi-cell and ABX in order to estimate the number of JURKAT that had been isolated and to assess the quantity of residual red blood cells.
as §1
Apoptosis was studied by flow cytometry, using double labelling of cells with annexin-V coupled to a fluorophore FITC and propidium iodide (PI).
Delta-apoptosis was determined by the following formula:
Δapoptosis=(% apoptosis of treated cells−% apoptosis of untreated cells) [Math. 1]

[3] = JURKAT cells 330.10^6 in 300 ml, 2% haematocrit plasma/saline, 333 ng/ml 8-MOP, bag, Macogenic G2 (Maco Pharma ECP system)

SMILES: COc1c2occc2cc2ccc(=O)oc12 [8-MOP, 8-methoxypsoralen]
- UVA dose from which acceptance criterion in terms of proliferation inhibition was achieved [1, 3]: ≥ 2 J/cm^2
- UVA dose meeting the acceptance criterion in terms of inhibition of proliferation ([1]; JURKAT cells in PBS, 200 ng/ml 8-MOP, Petri dish, BS02 irradiator, criterion inhibition >70% 3 days after irradiation): 0.13 J/cm^2
- UVA dose at which acceptance criterion for rate of proliferation inhibition was reached ([1]; JURKAT cells in plasma/saline 50/50, 2% haematocrit, 333 ng/ml 8-MOP, Petri dish, BS02 irradiator, D+3): 3 J/cm^2
- UVA dose from which acceptance criterion in terms of delta-apoptosis was achieved [2, 3]: ≥ 2 J/cm^2
- UVA dose meeting the acceptance criterion in terms of delta-apoptosis ([2]; JURKAT cells in PBS, 200 ng/ml 8-MOP, Petri dish, BS02 irradiator, criterion delta-apoptosis 30-40% one day, 50-60% two days after irradiation): 0.13 J/cm^2
- rate of cell necrosis ([2]; JURKAT cells in PBS, 200 ng/ml 8-MOP, all doses of UVA radiation tested (0.03-0.4 J/cm^2)): below 1%
- equivalent UVA dose (sigmoidal model of delta-apoptosis), BS02 irradiator ([2]; JURKAT cells in plasma, 333 ng/ml 8-MOP, BS02 irradiator in UVA): 4 J/cm^2
- equivalent UVA dose (sigmoidal model of delta-apoptosis), Macogenic G2 ([2]; JURKAT cells in plasma, 333 ng/ml 8-MOP, delivered with Macogenic G2): 2.1 J/cm^2
- UVA dose at which acceptance criterion for delta-apoptosis was reached ([2]; JURKAT cells in plasma/saline 50/50, 2% haematocrit, 333 ng/ml 8-MOP, Petri dish, BS02 irradiator): 4 J/cm^2

— patent US20240189615A1, “METHOD AND SYSTEM FOR PRODUCING APOPTOTIC MONONUCLEAR CELLS” (MACO PHARMA, priority 2020, published 2024)
